Data from US20040171543A1, “Matrix metalloproteinase inhibitors and methods for identification of lead compounds” (priority 2002, published 2004).

Key:
Assay type in all cases: biochemical
MMP-9 full length (9FL) = molecular target: T1, MMP-9 full length (9FL) (Homo sapiens, UniProt P14780); test: Fluorigenic peptide-1 substrate based assay, MMP-9, with/without AcNHOH
T1 construct: purchased Calbiochem; host or cells: stimulated neutrophils
From the text: MMP-9 may be obtained from commercial sources. For example, full-length pro-MMP-9 purified from stimulated neutrophils is available from Calbiochem.

MMP-2 = molecular target: T2, MMP-2 (Homo sapiens, UniProt P08253); test: Steady-state kinetics of the mechanism of inhibition of MMP-2; settings: 6 inhibitor concentrations 0 to 600 nanomolar, FIG. 8
T2 sequence (P08253 110-660): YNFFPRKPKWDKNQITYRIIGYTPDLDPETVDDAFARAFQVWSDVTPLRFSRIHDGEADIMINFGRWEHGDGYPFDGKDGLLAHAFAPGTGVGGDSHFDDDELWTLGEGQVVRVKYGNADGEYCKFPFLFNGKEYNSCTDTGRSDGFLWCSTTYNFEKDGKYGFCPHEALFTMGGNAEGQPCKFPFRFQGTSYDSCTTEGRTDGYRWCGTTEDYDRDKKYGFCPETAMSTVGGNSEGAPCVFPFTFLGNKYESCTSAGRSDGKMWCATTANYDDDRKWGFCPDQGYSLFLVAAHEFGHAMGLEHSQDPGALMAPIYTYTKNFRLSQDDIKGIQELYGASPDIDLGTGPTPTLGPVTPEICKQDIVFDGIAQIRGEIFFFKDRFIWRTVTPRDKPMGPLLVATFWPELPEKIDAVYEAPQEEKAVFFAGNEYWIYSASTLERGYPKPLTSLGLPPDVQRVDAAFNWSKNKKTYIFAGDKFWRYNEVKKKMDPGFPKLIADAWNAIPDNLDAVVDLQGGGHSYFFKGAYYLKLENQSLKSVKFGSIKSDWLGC
From the text: In FIG. 8, 1 over the initial velocity Vo, which is the initial rate of product formation in a steady state kinetics assay, is plotted on the Y-axis versus 1 over concentration of substrate [S] used in the assay on the X-axis for inhibition of MMP-2 with N-[(3-phenylisoxazol-5-ylmethyl)-aminothiocarbonyl]-benzamide at 6 concentrations of from 0 nanomolar to 600 nanomolar.

[1] = molecular target: T3, MMP-13 catalytic domain (MMP-13CD) (Homo sapiens, UniProt P45452); test: Fluorigenic peptide-1 substrate based assay, MMP-13CD, with/without AcNHOH; settings: IC50 with AcNHOH divided by IC50 without, listed as drawing 47
T3 construct: The catalytic domain of the MMP-13 enzyme, namely matrix metalloproteinase-13 catalytic domain (“MMP-13CD”)
Description: The catalytic domain of the MMP-13 enzyme, namely matrix metalloproteinase-13 catalytic domain (“MMP-13CD”), rather than the corresponding full-length enzyme, MMP-13 was used in such assay.
50 mM HEPES buffer (pH 7.0)
2% DMSO (with or without inhibitor test compound)
1. Dispensed 2 μL inhibitor test sample (in 100% DMSO) into well.
2. Added 88 μL assay mixture and mixed well, avoiding bubbles.
3. Initiated reactions with 10 μL of 5 nM MMP-13CD; mixed well, avoiding bubbles.
4. Immediately measured the kinetics of the reactions at room temperature.
Alternatively, an endpoint read can also be used to determine reaction velocity provided the initial fluorescence of the solution, as recorded before addition of enzyme, is subtracted from the final fluorescence of the reaction mixture.

MMP-2 full length (2FL) = molecular target: T4, MMP-2 full length (2FL) (Homo sapiens, UniProt P08253); test: Fluorigenic peptide-1 substrate based assay, MMP-2, with/without AcNHOH
T4 sequence (P08253 110-660): T2 sequence (P08253 110-660)

T1 sequence (P14780 107-707 limits assumed): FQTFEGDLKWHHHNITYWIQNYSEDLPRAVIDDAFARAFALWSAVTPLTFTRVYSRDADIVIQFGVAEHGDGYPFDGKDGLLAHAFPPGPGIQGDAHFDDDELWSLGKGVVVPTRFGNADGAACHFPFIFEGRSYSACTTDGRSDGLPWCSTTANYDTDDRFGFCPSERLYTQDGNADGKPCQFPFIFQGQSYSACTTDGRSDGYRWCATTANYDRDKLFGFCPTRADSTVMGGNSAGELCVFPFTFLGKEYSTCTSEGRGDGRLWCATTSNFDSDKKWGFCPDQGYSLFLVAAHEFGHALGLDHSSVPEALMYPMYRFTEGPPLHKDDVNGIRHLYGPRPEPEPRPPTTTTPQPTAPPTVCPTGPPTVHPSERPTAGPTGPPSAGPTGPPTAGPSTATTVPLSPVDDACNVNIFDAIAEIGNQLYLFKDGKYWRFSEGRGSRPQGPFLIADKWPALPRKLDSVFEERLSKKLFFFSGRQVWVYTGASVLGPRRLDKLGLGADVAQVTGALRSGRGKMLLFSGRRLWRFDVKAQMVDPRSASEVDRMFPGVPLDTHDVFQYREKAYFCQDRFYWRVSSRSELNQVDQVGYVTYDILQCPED

O=C(NC(=S)NCc1cc(-c2ccccc2)no1)c1ccccc1 [N-[(3-phenylisoxazol-5-ylmethyl)-aminothiocarbonyl]-benzamide] was tested, and the “IC50 Ratio (±)” value (MMP-9 full length (9FL)) was 0.39, the “Mechanism of inhibition of MMP-2” value (MMP-2) was “uncompetitive inhibitor” and the “IC50 Ratio (±)” value [1] was 0.09. The “IC50 Ratio (±)” value (MMP-2 full length (2FL)) was 0.10.
